Experimental data taken from patent publication US10851116B2, “Bicyclic amines as novel JAK kinase inhibitors” (LEO Pharma A/S, priority 2017, dated 2020).

Experiments:
Assay type in all cases: biochemical
[1] = molecular target: JAK1 (Homo sapiens (Human), UniProt P23458); experiment: JAK kinase assay (HTRF), JAK1; settings: catalytic domain (aa 850-1154), GST-tag, ATP at Km (7 μM)
Procedure: (§1) Human baculovirus-expressed JAK1, 2, 3 and TYK2 were purchased from Carna Biosciences, Inc. All four purified enzymes contain only the catalytic domain. JAK1 (aa 850-1154) and TYK2 (aa 871-1187) are expressed with an N-terminally fused GST-tag, and JAK2 and JAK3 with an N-terminally fused His-tag.
(§2) Inhibition of phosphorylation of a synthetic peptide was measured in an HTRF-based assay using the TK substrate-Biotin from the Cisbio HTRFKinEASE TK kit. First, 2 μl of TK solution (TK substrate-biotin in kinase buffer [1× enzymatic buffer from HTRFKinEASE TK kit, 1 mM DTT]) is added to a plate containing 1 μl prediluted compound (final assay concentration DMSO: 0.75%). Then, 5 μl kinase-ATP mix (prepared in kinase buffer) is added to the wells and the plates are incubated at RT for 20-30 min. For all four kinases a concentration of ATP that corresponded to the Km for ATP was used. The final concentrations of buffers, substrate, kinase and ATP were: JAK1: 50 mM Hepes buffer pH 7.0, 0.01% BSA, 10 mM MgCl2, 1 mM DTT, 7 μM ATP, 50 nM SEB, 1 μM TK Substrate-Biotin and 5 ng JAK1; JAK2: 50 mM Hepes buffer pH 7.0, 0.01% BSA, 5 mM MgCl2, 1 mM DTT, 4 μM ATP, 1 μM TK Substrate-Biotin and 0.1 ng JAK2; JAK3: 50 mM Hepes buffer pH 7.0, 0.01% BSA, 5 mM MgCl2, 1 mM DTT, 2 μM ATP, 1 μM TK Substrate-Biotin and 0.3 ng JAK3; TYK2: 50 mM Hepes buffer pH 7.0, 0.01% BSA, 5 mM MgCl2, 1 mM DTT, 13 μM ATP, 50 nM SEB, 1 μM TK Substrate-Biotin and 0.8 ng TYK2. Thereafter, the kinase reaction is stopped by adding 4 μl detection mix (final concentrations: 50 mM Hepes buffer pH 7.0, 0.01% BSA, 0.8 M KF, 20 mM EDTA, 42 nM Streptavidin-XL665 and 1:400 STK Ab Cryptate) and the plates are incubated overnight in the dark. The HTRF signal is read using an Envision plate reader.

[2] = molecular target: JAK2 (Homo sapiens (Human), UniProt O60674); experiment: JAK kinase assay (HTRF), JAK2; settings: catalytic domain, His-tag, ATP at Km (4 μM)
JAK2, sequence (O60674 849-1124): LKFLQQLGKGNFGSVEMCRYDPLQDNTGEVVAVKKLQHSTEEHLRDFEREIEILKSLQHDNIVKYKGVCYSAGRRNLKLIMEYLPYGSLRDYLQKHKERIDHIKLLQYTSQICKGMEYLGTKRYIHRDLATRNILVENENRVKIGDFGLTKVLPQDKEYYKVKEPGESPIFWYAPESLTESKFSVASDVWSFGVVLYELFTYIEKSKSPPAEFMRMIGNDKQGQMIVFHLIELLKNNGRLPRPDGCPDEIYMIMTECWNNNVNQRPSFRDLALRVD
Procedure: as §1, §2

[3] = molecular target: JAK3 (Homo sapiens (Human), UniProt P52333); experiment: JAK kinase assay (HTRF), JAK3; settings: catalytic domain, His-tag, ATP at Km (2 μM)
JAK3, sequence (P52333 822-1111): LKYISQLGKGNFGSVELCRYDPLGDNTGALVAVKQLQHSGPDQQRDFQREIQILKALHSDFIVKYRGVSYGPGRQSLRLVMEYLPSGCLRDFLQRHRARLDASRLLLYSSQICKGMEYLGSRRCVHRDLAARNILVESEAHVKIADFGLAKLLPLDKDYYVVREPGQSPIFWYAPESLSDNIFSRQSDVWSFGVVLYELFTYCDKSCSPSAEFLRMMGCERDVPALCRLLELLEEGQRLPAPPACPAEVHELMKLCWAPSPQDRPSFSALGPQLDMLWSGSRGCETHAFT
Procedure: as §1, §2

[4] = molecular target: TYK2 (Homo sapiens (Human), UniProt P29597); experiment: JAK kinase assay (HTRF), TYK2; settings: catalytic domain (aa 871-1187), GST-tag, ATP at Km (13 μM)
TYK2, sequence (P29597 871-1187): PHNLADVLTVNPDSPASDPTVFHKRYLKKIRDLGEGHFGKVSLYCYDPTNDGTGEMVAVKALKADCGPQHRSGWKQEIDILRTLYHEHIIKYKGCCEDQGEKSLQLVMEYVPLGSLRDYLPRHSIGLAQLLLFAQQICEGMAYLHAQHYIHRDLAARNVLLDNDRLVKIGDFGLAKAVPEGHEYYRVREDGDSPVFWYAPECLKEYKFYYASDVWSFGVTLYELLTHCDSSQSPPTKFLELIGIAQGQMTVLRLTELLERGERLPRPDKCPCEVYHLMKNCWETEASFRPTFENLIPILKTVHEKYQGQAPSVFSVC
Procedure: as §1, §2

JAK1, sequence (P23458 850-1154): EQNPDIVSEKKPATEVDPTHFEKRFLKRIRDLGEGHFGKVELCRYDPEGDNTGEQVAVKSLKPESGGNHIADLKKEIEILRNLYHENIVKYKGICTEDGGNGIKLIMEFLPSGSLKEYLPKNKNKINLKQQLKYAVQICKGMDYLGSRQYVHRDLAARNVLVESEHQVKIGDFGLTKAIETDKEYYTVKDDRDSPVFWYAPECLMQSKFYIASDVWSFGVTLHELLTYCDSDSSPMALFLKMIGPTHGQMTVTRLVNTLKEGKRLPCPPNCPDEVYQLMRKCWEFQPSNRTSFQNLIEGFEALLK

## C[C@]12CN(c3ncc(C#N)cn3)C[C@H]1CCN(c1ncnc3[nH]ccc13)C2 (racemic) [Example 41, 2-[(3aS*,7aS*)-3a-methyl-5-(7H-pyrrolo[2,3-d]pyrimidin-4-yl)-1,3,4,6,7,7a-hexahydropyrrolo[3,4-c]pyridin-2-yl]pyrimidine-5-carbonitrile]
[1]
  EC50: 49 nM
[2]
  EC50: 216 nM
[3]
  EC50: 70 nM
[4]
  EC50: 2040 nM

## C[C@]12CN(c3ncccc3CO)C[C@H]1CCN(c1ncnc3[nH]ccc13)C2 (racemic) [Example 36, [2-[(3aS*,7aS*)-3a-methyl-5-(7H-pyrrolo[2,3-d]pyrimidin-4-yl)-1,3,4,6,7,7a-hexahydropyrrolo[3,4-c]pyridin-2-yl]-3-pyridyl]methanol]
[1]
  EC50: 69 nM
[2]
  EC50: 120 nM
[3]
  EC50: 235 nM
[4]
  EC50: 1110 nM

## CC[C@@]12CN(C#N)CC[C@@H]1CCN(c1ncnc3[nH]ccc13)C2 [Example 21, (4aS,8aR)-8a-ethyl-7-(7H-pyrrolo[2,3-d]pyrimidin-4-yl)-3,4,4a,5,6,8-hexahydro-1H-2,7-naphthyridine-2-carbonitrile]
[1]
  EC50: 80 nM
[2]
  EC50: 187 nM
[3]
  EC50: 578 nM
[4]
  EC50: 988 nM

## Cc1cc(C#N)cnc1N1CC[C@H]2CCN(c3ncnc4[nH]ccc34)C[C@@]2(C)C1 (racemic) [Example 11, 6-[(4aS*,8aR*)-8a-methyl-7-(7H-pyrrolo[2,3-d]pyrimidin-4-yl)-3,4,4a,5,6,8-hexahydro-1H-2,7-naphthyridin-2-yl]-5-methyl-pyridine-3-carbonitrile]
[1]
  EC50: 86 nM
[2]
  EC50: 380 nM
[3]
  EC50: 85 nM
[4]
  EC50: 976 nM

## C[C@]12CN(c3ncc(Br)cc3CO)C[C@H]1CCN(c1ncnc3[nH]ccc13)C2 (racemic) [Example 37, [2-[(3aS*,7aS*)-3a-methyl-5-(7H-pyrrolo[2,3-d]pyrimidin-4-yl)-1,3,4,6,7,7a-hexahydropyrrolo[3,4-c]pyridin-2-yl]-5-bromo-3-pyridyl]methanol]
[1]
  EC50: 12 nM
[2]
  EC50: 48 nM
[3]
  EC50: 38 nM
[4]
  EC50: 611 nM

## C[C@@]12CN(c3ncnc4[nH]ccc34)CC[C@@H]1CCN(S(C)(=O)=O)C2 (racemic) [Example 13, (4aR*,8aS*)-8a-methyl-2-methylsulfonyl-7-(7H-pyrrolo[2,3-d]pyrimidin-4-yl)-3,4,4a,5,6,8-hexahydro-1H-2,7-naphthyridine]
[1]
  EC50: 72 nM
[2]
  EC50: 90 nM
[3]
  EC50: 75 nM
[4]
  EC50: 326 nM

## C[C@@]12CN(c3ncnc4[nH]ccc34)CC[C@@H]1CN(S(C)(=O)=O)C2 (racemic) [Example 26, 4-[(3aS*,7aS*)-3a-methyl-2-methylsulfonyl-1,3,4,6,7,7a-hexahydropyrrolo[3,4-c]pyridin-5-yl]-7H-pyrrolo[2,3-d]pyrimidine]
[1]
  EC50: 93 nM
[2]
  EC50: 154 nM
[3]
  EC50: 243 nM
[4]
  EC50: 898 nM

## C[C@]12CN(c3ccc(C#N)nn3)CC[C@H]1CCN(c1ncnc3[nH]ccc13)C2 (racemic) [Example 6, 6-[(4aR*,8aS*)-8a-methyl-7-(7H-pyrrolo[2,3-d]pyrimidin-4-yl)-3,4,4a,5,6,8-hexahydro-1H-2,7-naphthyridin-2-yl]pyridazine-3-carbonitrile]
[1]
  EC50: 17 nM
[2]
  EC50: 64 nM
[3]
  EC50: 9 nM
[4]
  EC50: 634 nM

## Cc1cc(C#N)cnc1N1C[C@H]2CCN(c3ncnc4[nH]ccc34)C[C@@]2(C)C1 (racemic) [Example 44]
[1]
  EC50: 65 nM
[2]
  EC50: 179 nM
[3]
  EC50: 99 nM
[4]
  EC50: 2020 nM

## CC[C@]12CN(c3ncnc4[nH]ccc34)CC[C@H]1CCN(S(N)(=O)=O)C2 [Example 19, (4aS,8aR)-8a-ethyl-7-(7H-pyrrolo[2,3-d]pyrimidin-4-yl)-3,4,4a,5,6,8-hexahydro-1H-2,7-naphthyridine-2-sulfonamide]
[1]
  EC50: 146 nM
[2]
  EC50: 208 nM
[3]
  EC50: 151 nM
[4]
  EC50: 1880 nM

## CCC12CNCCC1CCN(c1ncnc3[nH]ccc13)C2 (stereo not drawn) [Intermediate 10, 8a-ethyl-7-(7H-pyrrolo[2,3-d]pyrimidin-4-yl)-1,2,3,4,4a,5,6,8-octahydro-2,7-naphthyridine]
[1]
  EC50: 16 nM
[2]
  EC50: 25 nM
[3]
  EC50: 157 nM
[4]
  EC50: 1980 nM

## C[C@]12CN(c3ncc(C#N)cn3)CC[C@H]1CCN(c1ncnc3[nH]ccc13)C2 (racemic) [Example 7, 2-[(4aR*,8aS*)-8a-methyl-7-(7H-pyrrolo[2,3-d]pyrimidin-4-yl)-3,4,4a,5,6,8-hexahydro-1H-2,7-naphthyridin-2-yl]pyrimidine-5-carbonitrile]
[1]
  EC50: 46 nM
[2]
  EC50: 140 nM
[3]
  EC50: 5 nM
[4]
  EC50: 740 nM

## C[C@]12CN(c3ccncn3)C[C@H]1CCN(c1ncnc3[nH]ccc13)C2 (racemic) [Example 39, 4-[(3aR*,7aS*)-3a-methyl-2-pyrimidin-4-yl-1,3,4,6,7,7a-hexahydropyrrolo[3,4-c]pyridin-5-yl]-7H-pyrrolo[2,3-d]pyrimidine]
[1]
  EC50: 18 nM
[2]
  EC50: 72 nM
[3]
  EC50: 199 nM
[4]
  EC50: 775 nM

## CC[C@]12CN(C(C)=O)CC[C@H]1CCN(c1ncnc3[nH]ccc13)C2 (relative stereo) [Example 15, 1-[(4aR*,8aS*)-8a-ethyl-7-(7H-pyrrolo[2,3-d]pyrimidin-4-yl)-3,4,4a,5,6,8-hexahydro-1H-2,7-naphthyridin-2-yl]ethanone]
[1]
  EC50: 121 nM
[2]
  EC50: 453 nM
[3]
  EC50: 69 nM
[4]
  EC50: 1040 nM

## C[C@]12CN(c3ccc(C#N)cn3)CC[C@H]1CCN(c1ncnc3[nH]ccc13)C2 (racemic) [Example 5, 6-[(4aR*,8aS*)-8a-methyl-7-(7H-pyrrolo[2,3-d]pyrimidin-4-yl)-3,4,4a,5,6,8-hexahydro-1H-2,7-naphthyridin-2-yl]pyridine-3-carbonitrile]
[1]
  EC50: 10 nM
[2]
  EC50: 80 nM
[3]
  EC50: 7 nM
[4]
  EC50: 453 nM

## C[C@@]12CN(c3ncnc4[nH]ccc34)CC[C@@H]1CN(S(N)(=O)=O)C2 (racemic) [Example 27, (3aS*,7aS*)-3a-methyl-5-(7H-pyrrolo[2,3-d]pyrimidin-4-yl)-1,3,4,6,7,7a-hexahydropyrrolo[3,4-c]pyridine-2-sulfonamide]
[1]
  EC50: 40 nM
[2]
  EC50: 80 nM
[3]
  EC50: 54 nM
[4]
  EC50: 473 nM

## C[C@]12CN(c3ccc(S(C)(=O)=O)cc3)C[C@H]1CCN(c1ncnc3[nH]ccc13)C2 (racemic) [Example 38, 4-[(3aR*,7aS*)-3a-methyl-2-(4-methylsulfonylphenyl)-1,3,4,6,7,7a-hexahydropyrrolo[3,4-c]pyridin-5-yl]-7H-pyrrolo[2,3-d]pyrimidine]
[1]
  EC50: 7 nM
[2]
  EC50: 32 nM
[3]
  EC50: 71 nM
[4]
  EC50: 335 nM

## C[C@@]12CN(C#N)C[C@@H]1CCN(c1ncnc3[nH]ccc13)C2 [Example 28, (3aR,7aR)-3a-methyl-5-(7H-pyrrolo[2,3-d]pyrimidin-4-yl)-1,3,4,6,7,7a-hexahydropyrrolo[3,4-c]pyridine-2-carbonitrile]
[1]
  EC50: 240 nM
[2]
  EC50: 827 nM
[3]
  EC50: 2180 nM
[4]
  EC50: 2470 nM

## C[C@@]12CN(c3ncnc4[nH]ccc34)CC[C@@H]1CN(S(=O)(=O)CC(F)(F)F)C2 (racemic) [Example 31, 4-[(3aS*,7aS*)-3a-methyl-2-(2,2,2-trifluoroethylsulfonyl)-1,3,4,6,7,7a-hexahydropyrrolo[3,4-c]pyridin-5-yl]-7H-pyrrolo[2,3-d]pyrimidine]
[1]
  EC50: 133 nM
[2]
  EC50: 455 nM
[3]
  EC50: 274 nM
[4]
  EC50: 3180 nM

## C[C@]12CN(c3cnc(C#N)cn3)CC[C@H]1CCN(c1ncnc3[nH]ccc13)C2 (racemic) [Example 4, 5-[(4aR*,8aS*)-8a-methyl-7-(7H-pyrrolo[2,3-d]pyrimidin-4-yl)-3,4,4a,5,6,8-hexahydro-1H-2,7-naphthyridin-2-yl]pyrazine-2-carbonitrile]
[1]
  EC50: 4 nM
[2]
  EC50: 25 nM
[3]
  EC50: 4 nM
[4]
  EC50: 148 nM

## Cc1nc(N2CC[C@H]3CCN(c4ncnc5[nH]ccc45)C[C@@]3(C)C2)ccc1C#N (racemic) [Example 10, 6-[(4aS*,8aR*)-8a-methyl-7-(7H-pyrrolo[2,3-d]pyrimidin-4-yl)-3,4,4a,5,6,8-hexahydro-1H-2,7-naphthyridin-2-yl]-2-methyl-pyridine-3-carbonitrile]
[1]
  EC50: 112 nM
[2]
  EC50: 469 nM
[3]
  EC50: 204 nM
[4]
  EC50: 3880 nM
